Results from patent US20230391739A1, “ARYL DERIVATIVES FOR TREATING TRPM3 MEDIATED DISORDERS” (Katholieke Universiteit Leuven, priority 2020, published 2023).

biological target: T1, mouse TRPM3α2 (mTRPM3) ion channel (Mus musculus, UniProt J9SQF3); experiment: TRPM3 ion channel driven Ca2+ uptake, Fluo-4 AM assay, PS-stimulated (mTRPM3); type: cell-based; settings: TRPM3 overexpressing flip-in HEK293 cells stimulated with Pregnenolone sulfate (PS) 50 μM, activity ranges A, B, C
T1 construct: expressed in transfected cells; host or cells: flip-in HEK293
Outline: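 Flp-In HEK293 cells overexpressing mTRPM3α2 were added, in Ca²⁺-free Krebs, to wells already holding compound and 50 μM pregnenolone sulfate in Ca²⁺-containing Krebs. Fluo-4 AM fluorescence (ex 485/em 535 nm) was read immediately. Percent inhibition was computed from RFU relative to PS/vehicle wells and a positive-control inhibitor.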

T1 sequence (J9SQF3 1-1709 isoform J9SQF3-12): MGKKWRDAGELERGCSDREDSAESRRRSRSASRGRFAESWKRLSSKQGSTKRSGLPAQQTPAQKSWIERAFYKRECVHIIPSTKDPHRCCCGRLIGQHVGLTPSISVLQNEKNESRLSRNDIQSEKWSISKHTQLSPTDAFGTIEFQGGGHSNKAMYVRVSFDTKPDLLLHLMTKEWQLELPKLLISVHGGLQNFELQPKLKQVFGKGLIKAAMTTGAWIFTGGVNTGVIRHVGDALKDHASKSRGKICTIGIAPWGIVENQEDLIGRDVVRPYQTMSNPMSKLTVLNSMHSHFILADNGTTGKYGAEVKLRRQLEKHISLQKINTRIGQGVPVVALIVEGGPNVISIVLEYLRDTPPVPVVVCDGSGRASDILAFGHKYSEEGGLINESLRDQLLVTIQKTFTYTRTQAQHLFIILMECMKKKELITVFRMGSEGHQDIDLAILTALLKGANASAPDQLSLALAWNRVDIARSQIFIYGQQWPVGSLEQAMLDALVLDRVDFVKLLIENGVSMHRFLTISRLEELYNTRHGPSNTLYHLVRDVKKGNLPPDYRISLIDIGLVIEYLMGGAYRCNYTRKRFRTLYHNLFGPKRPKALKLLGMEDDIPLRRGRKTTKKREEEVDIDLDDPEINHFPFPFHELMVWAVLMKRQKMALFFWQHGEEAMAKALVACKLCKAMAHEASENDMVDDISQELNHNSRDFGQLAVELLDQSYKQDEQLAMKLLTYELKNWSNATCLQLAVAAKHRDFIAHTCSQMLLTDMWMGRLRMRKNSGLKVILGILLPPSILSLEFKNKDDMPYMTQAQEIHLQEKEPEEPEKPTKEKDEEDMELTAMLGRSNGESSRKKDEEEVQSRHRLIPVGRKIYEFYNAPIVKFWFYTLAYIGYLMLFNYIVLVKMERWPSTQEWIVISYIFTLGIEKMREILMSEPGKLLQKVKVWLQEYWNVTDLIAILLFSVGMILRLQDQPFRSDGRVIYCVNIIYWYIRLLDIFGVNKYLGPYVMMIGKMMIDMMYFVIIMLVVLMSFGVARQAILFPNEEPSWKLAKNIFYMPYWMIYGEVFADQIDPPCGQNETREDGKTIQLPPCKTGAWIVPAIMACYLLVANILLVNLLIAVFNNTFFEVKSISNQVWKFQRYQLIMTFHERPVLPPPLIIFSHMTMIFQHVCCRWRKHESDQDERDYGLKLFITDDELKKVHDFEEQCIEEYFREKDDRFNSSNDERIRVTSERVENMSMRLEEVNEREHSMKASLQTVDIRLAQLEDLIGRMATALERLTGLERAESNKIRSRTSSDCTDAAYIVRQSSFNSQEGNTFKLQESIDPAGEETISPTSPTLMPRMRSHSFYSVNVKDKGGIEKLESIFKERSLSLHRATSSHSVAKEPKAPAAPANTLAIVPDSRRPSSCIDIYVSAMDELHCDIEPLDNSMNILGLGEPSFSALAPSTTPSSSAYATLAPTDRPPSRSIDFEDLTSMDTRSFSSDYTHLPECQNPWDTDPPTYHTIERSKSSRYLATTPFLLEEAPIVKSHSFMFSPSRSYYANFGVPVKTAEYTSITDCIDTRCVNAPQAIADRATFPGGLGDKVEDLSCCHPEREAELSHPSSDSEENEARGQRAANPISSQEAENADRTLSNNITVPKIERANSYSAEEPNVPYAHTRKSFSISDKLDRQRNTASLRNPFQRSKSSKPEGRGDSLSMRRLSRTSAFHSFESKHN

Row | Compound | IC50 [nM]
1 | Cc1ccc(COc2ccc3oc(C)c(C(=O)N[C@H]4CCNC4)c3c2)cc1 [Cpd 085, (S)-2-methyl-5-((4-methylbenzyl)oxy)-N-(pyrrolidin-3-yl)benzofuran-3-carboxamide] | < 1000
2 | Cc1oc2ccc(OCc3ccccc3)cc2c1C(=O)NC1CCC(O)C1 (centres unmarked) [Cpd 086, 5-(benzyloxy)-N-(3-hydroxycyclopentyl)-2-methylbenzofuran-3-carboxamide] | < 1000
3 | Cc1oc2ccc(OCc3ccccc3)cc2c1C(=O)NCC1CCCO1 (centres unmarked) [Cpd 087, 5-(benzyloxy)-2-methyl-N-((tetrahydrofuran-2-yl)methyl)benzofuran-3-carboxamide] | < 1000
4 | Cc1oc2ccc(OCc3ccccc3)cc2c1C(=O)NC1CCOCC1 [Cpd 088, 5-(benzyloxy)-2-methyl-N-(tetrahydro-2H-pyran-4-yl)benzofuran-3-carboxamide] | < 1000
5 | Cc1oc2ccc(OCc3ccccc3)cc2c1C(=O)NC[C@H]1CCCO1 [Cpd 089, (R)-5-(benzyloxy)-2-methyl-N-((tetrahydrofuran-2-yl)methyl)benzofuran-3-carboxamide] | 1000 to 20000
6 | Cc1oc2ccc(OCc3ccccc3)cc2c1C(=O)NC[C@@H]1CCCO1 [Cpd 090, (S)-5-(benzyloxy)-2-methyl-N-((tetrahydrofuran-2-yl)methyl)benzofuran-3-carboxamide] | < 1000
7 | Cc1oc2ccc(OCc3ccccc3)cc2c1C(=O)NCCCN(C)C [Cpd 091, 5-(benzyloxy)-N-(3-(dimethylamino)propyl)-2-methylbenzofuran-3-carboxamide] | 1000 to 20000
8 | Cc1oc2ccc(OCc3ccccc3)cc2c1C(=O)NC1(CO)COC1 [Cpd 092, 5-(benzyloxy)-N-(3-(hydroxymethyl)oxetan-3-yl)-2-methylbenzofuran-3-carboxamide] | < 1000
9 | Cc1oc2ccc(OCc3ccccc3F)cc2c1C(=O)N[C@H]1CCNC1 [Cpd 095, (S)-5-((2-fluorobenzyl)oxy)-2-methyl-N-(pyrrolidin-3-yl)benzofuran-3-carboxamide] | < 1000
10 | Cc1oc2ccc(OCc3cccc(F)c3)cc2c1C(=O)N[C@H]1CCNC1 [Cpd 096, (S)-5-((3-fluorobenzyl)oxy)-2-methyl-N-(pyrrolidin-3-yl)benzofuran-3-carboxamide] | < 1000
11 | Cc1oc2ccc(OCc3ccc(F)cc3)cc2c1C(=O)N[C@H]1CCNC1 [Cpd 097, (S)-5-((4-fluorobenzyl)oxy)-2-methyl-N-(pyrrolidin-3-yl)benzofuran-3-carboxamide] | < 1000
12 | Cc1oc2ccc(OCc3ccccc3)cc2c1C(=O)NCc1ccccc1 [Cpd 098, N-benzyl-5-(benzyloxy)-2-methylbenzofuran-3-carboxamide] | > 20000
13 | Cc1oc2ccc(OCc3ccccc3)cc2c1C(=O)NCc1ccccn1 [Cpd 099, 5-(benzyloxy)-2-methyl-N-(pyridin-2-ylmethyl)benzofuran-3-carboxamide] | 1000 to 20000
14 | Cc1oc2ccc(OCc3ccccc3)cc2c1C(=O)NCc1cccnc1 [Cpd 100, 5-(benzyloxy)-2-methyl-N-(pyridin-3-ylmethyl)benzofuran-3-carboxamide] | 1000 to 20000
15 | Cc1oc2ccc(OCc3ccccc3)cc2c1C(=O)NCc1ccncc1 [Cpd 101, 5-(benzyloxy)-2-methyl-N-(pyridin-4-ylmethyl)benzofuran-3-carboxamide] | 1000 to 20000
16 | Cc1oc2ccc(OCc3ccccc3)cc2c1C(=O)NCc1cnccn1 [Cpd 102, 5-(benzyloxy)-2-methyl-N-(pyrazin-2-ylmethyl)benzofuran-3-carboxamide] | 1000 to 20000
17 | Cc1oc2ccc(OCc3ccc(C#N)cc3)cc2c1C(=O)N[C@H]1CCNC1 [Cpd 103, (S)-5-((4-cyanobenzyl)oxy)-2-methyl-N-(pyrrolidin-3-yl)benzofuran-3-carboxamide] | 1000 to 20000
18 | Cc1oc2ccc(OCc3ccccc3)cc2c1C(=O)NCc1ccnn1C [Cpd 104, 5-(benzyloxy)-2-methyl-N-((1-methyl-1H-pyrazol-5-yl)methyl)benzofuran-3-carboxamide] | < 1000
19 | Cc1cc(CNC(=O)c2c(C)oc3ccc(OCc4ccccc4)cc23)no1 [Cpd 105, 5-(benzyloxy)-2-methyl-N-((5-methylisoxazol-3-yl)methyl)benzofuran-3-carboxamide] | < 1000
20 | Cc1oc2ccc(OCc3ccccc3)cc2c1C(=O)NC1CCC(C)CC1 (centres unmarked) [Cpd 106, 5-(benzyloxy)-2-methyl-N-(4-methylcyclohexyl)benzofuran-3-carboxamide] | > 20000
21 | Cc1oc2ccc(OCc3ccccc3)cc2c1C(=O)N[C@@H]1CCCNC1=O [Cpd 107, (R)-5-(benzyloxy)-2-methyl-N-(2-oxopiperidin-3-yl)benzofuran-3-carboxamide] | < 1000
22 | Cc1oc2ccc(OCc3ccccc3)cc2c1C(=O)NC1CCNC(=O)C1 (centres unmarked) [Cpd 108, 5-(benzyloxy)-2-methyl-N-(2-oxopiperidin-4-yl)benzofuran-3-carboxamide] | 1000 to 20000

Row | Compound | IC50 [nM]
23 | Cc1oc2ccc(OCc3ccccc3)cc2c1C(=O)N[C@H]1CCCNC1=O [Cpd 109, (S)-5-(benzyloxy)-2-methyl-N-(2-oxopiperidin-3-yl)benzofuran-3-carboxamide] | < 1000
24 | Cc1oc2ccc(OCc3ccccc3)cc2c1C(=O)NC1CC(=O)N(C)C1 (centres unmarked) [Cpd 110, 5-(benzyloxy)-2-methyl-N-(1-methyl-5-oxopyrrolidin-3-yl)benzofuran-3-carboxamide] | 1000 to 20000
25 | Cc1oc2ccc(OCc3ccccc3)cc2c1C(=O)NC1CCC(=O)NC1 (centres unmarked) [Cpd 111, 5-(benzyloxy)-2-methyl-N-(6-oxopiperidin-3-yl)benzofuran-3-carboxamide] | 1000 to 20000
26 | Cc1oc2ccc(OCc3ccccc3)cc2c1C(=O)NCC1CCC(=O)N1 (centres unmarked) [Cpd 112, 5-(benzyloxy)-2-methyl-N-((5-oxopyrrolidin-2-yl)methyl)benzofuran-3-carboxamide] | < 1000
27 | Cc1oc2ccc(OCc3ccccc3)cc2c1C(=O)NC1CCCNC1=O (centres unmarked) [Cpd 113, 5-(benzyloxy)-2-methyl-N-(2-oxopiperidin-3-yl)benzofuran-3-carboxamide] | < 1000
28 | Cc1oc2ccc(OCc3ccccc3)cc2c1C(=O)N[C@H]1CC[C@@H](N)CC1 [Cpd 116, N-(cis-4-aminocyclohexyl)-5-(benzyloxy)-2-methylbenzofuran-3-carboxamide] | < 1000
29 | Cc1oc2ccc(OCc3ccccc3)cc2c1C(=O)NC1CCN(C)CC1 [Cpd 117, 5-(benzyloxy)-2-methyl-N-(1-methylpiperidin-4-yl)benzofuran-3-carboxamide] | < 1000
30 | Cc1oc2ccc(OCc3ccccc3)cc2c1C(=O)N1CC[C@@H](N(C)C)C1 [Cpd 118, (R)-(5-(benzyloxy)-2-methylbenzofuran-3-yl)(3-(dimethylamino)pyrrolidin-1-yl)methanone] | > 20000
31 | Cc1oc2ccc(OCc3ccccc3)cc2c1C(=O)NC1CCCNCC1 (centres unmarked) [Cpd 119, N-(azepan-4-yl)-5-(benzyloxy)-2-methylbenzofuran-3-carboxamide] | < 1000
32 | Cc1oc2ccc(OCc3ccccc3)cc2c1C(=O)N[C@H]1CC[C@H](N)CC1 [Cpd 120, N-(trans-4-aminocyclohexyl)-5-(benzyloxy)-2-methylbenzofuran-3-carboxamide] | 1000 to 20000
33 | Cc1oc2ccc(OCc3ccccc3)cc2c1C(=O)NCC1CCNCC1 [Cpd 121, 5-(benzyloxy)-2-methyl-N-(piperidin-4-ylmethyl)benzofuran-3-carboxamide] | 1000 to 20000
34 | Cc1oc2ccc(OCc3ccccc3)cc2c1C(=O)NCC1CCOCC1 [Cpd 122, 5-(benzyloxy)-2-methyl-N-((tetrahydro-2H-pyran-4-yl)methyl)benzofuran-3-carboxamide] | 1000 to 20000
35 | Cc1oc2ccc(OCc3ccccc3)cc2c1C(=O)NC1CCC(O)CC1 (centres unmarked) [Cpd 123, 5-(benzyloxy)-N-(4-hydroxycyclohexyl)-2-methylbenzofuran-3-carboxamide] | < 1000
36 | Cc1oc2ccc(OCc3ccccc3)cc2c1C(=O)N[C@H]1CC[C@H](O)CC1 [Cpd 124, 5-(benzyloxy)-N-(trans-4-hydroxycyclohexyl)-2-methylbenzofuran-3-carboxamide] | < 1000
37 | Cc1oc2ccc(OCc3ccccc3)cc2c1C(=O)N[C@H]1CC[C@@H](O)CC1 [Cpd 125, 5-(benzyloxy)-N-(cis-4-hydroxycyclohexyl)-2-methylbenzofuran-3-carboxamide] | < 1000
38 | Cc1oc2ccc(OCc3ccccc3)cc2c1C(=O)N[C@@H]1CN[C@H](CO)C1 [Cpd 126, 5-(benzyloxy)-N-((3S,5S)-5-(hydroxymethyl)pyrrolidin-3-yl)-2-methylbenzofuran-3-carboxamide] | < 1000
39 | COc1cccc(COc2ccc3oc(C)c(C(=O)N[C@H]4CCNC4)c3c2)c1 [Cpd 127, (S)-5-((3-methoxybenzyl)oxy)-2-methyl-N-(pyrrolidin-3-yl)benzofuran-3-carboxamide] | < 1000
40 | Cc1oc2ccc(OCc3ccccc3)cc2c1C(=O)NCC1(CO)COC1 [Cpd 128, 5-(benzyloxy)-N-((3-(hydroxymethyl)oxetan-3-yl)methyl)-2-methylbenzofuran-3-carboxamide] | < 1000
41 | Cc1oc2ccc(OCc3ccccc3F)cc2c1C(=O)NC1CCNC1=O (centres unmarked) [Cpd 129, 5-((2-fluorobenzyl)oxy)-2-methyl-N-(2-oxopyrrolidin-3-yl)benzofuran-3-carboxamide] | < 1000
42 | Cc1oc2ccc(OCc3ccccc3)cc2c1C(=O)NC1CCNCC1F (centres unmarked) [Cpd 131, 5-(benzyloxy)-N-(3-fluoropiperidin-4-yl)-2-methylbenzofuran-3-carboxamide] | < 1000
43 | Cc1oc2ccc(OCc3cccc(F)c3)cc2c1C(=O)NCC1CCCO1 (centres unmarked) [Cpd 132, 5-((3-fluorobenzyl)oxy)-2-methyl-N-((tetrahydrofuran-2-yl)methyl)benzofuran-3-carboxamide] | < 1000
44 | Cc1oc2ccc(OCc3ccccc3)cc2c1C(=O)NS(=O)(=O)C1CC1 [Cpd 133, 5-(benzyloxy)-N-(cyclopropylsulfonyl)-2-methylbenzofuran-3-carboxamide] | < 1000
